# Measured values taken from publication PMC11856932, “Aeromonas hydrophila CobQ is a new type of NAD^+- and Zn^2+-independent protein lysine deacetylase” (eLife, 2025).
# How the values were obtained:
# Assay type in all cases: biochemical
# ICD = biological target: T1, ICD (Aeromonas hydrophila, UniProt A0KI74); assay: NADPH formation, absorbance at […] nm; conditions: 0.5 mM NADP, 1.5 mM isocitrate, 3 mM MgCl2, 100 mM Tris-HCl pH 8.0, 10% glycerol
# T1 construct: recombinant, pET-21b vector, E. coli BL21(DE3), Ni-NTA purified; non-acetylated form
# T1 sequence (A0KI74 1-417): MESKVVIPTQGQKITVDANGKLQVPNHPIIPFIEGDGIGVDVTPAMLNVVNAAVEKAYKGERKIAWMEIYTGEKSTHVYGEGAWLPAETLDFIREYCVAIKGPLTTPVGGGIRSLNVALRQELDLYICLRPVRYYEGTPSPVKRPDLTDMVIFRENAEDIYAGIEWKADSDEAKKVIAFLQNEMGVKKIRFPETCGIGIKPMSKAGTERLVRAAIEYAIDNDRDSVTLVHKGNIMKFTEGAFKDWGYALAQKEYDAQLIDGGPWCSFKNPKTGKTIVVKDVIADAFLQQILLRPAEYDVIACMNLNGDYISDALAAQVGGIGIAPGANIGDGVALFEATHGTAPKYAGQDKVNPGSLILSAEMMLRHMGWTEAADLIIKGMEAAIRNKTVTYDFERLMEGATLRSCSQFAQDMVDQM
# AhCobB [1] = biological target: T2, AhCobB (Aeromonas hydrophila, UniProt A0KKN9); assay: deacetylation of Kac-BSA, anti-Kac western blot; conditions: 0.25 mM NAD+ as co-substrate; 150 mM Tris-HCl pH 8.0, 10% glycerol, 37 °C, 3 h
# T2 construct: gene cobB; recombinant, pET-21b/32a vector, E. coli BL21(DE3), Ni-NTA purified
# T2 sequence (A0KKN9 1-257): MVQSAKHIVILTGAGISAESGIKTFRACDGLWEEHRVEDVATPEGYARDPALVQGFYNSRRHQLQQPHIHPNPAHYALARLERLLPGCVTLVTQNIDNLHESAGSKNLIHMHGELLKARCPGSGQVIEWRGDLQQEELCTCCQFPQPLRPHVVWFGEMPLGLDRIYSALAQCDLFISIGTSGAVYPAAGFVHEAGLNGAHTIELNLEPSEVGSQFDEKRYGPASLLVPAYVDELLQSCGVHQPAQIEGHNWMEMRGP
# AhCobB [2] = biological target: T2, AhCobB; assay: deacetylation of Kac-BSA, anti-Kac western blot; conditions: 0.5 mM NAM; 150 mM Tris-HCl pH 8.0, 10% glycerol, 37 °C, 3 h; inhibitor
smiles,measurement,setting,value
NC(=O)c1ccc[n+]([C@@H]2O[C@H](COP(=O)(O)OP(=O)(O)OC[C@H]3O[C@@H](n4cnc5c(N)ncnc54)[C@H](OP(=O)(O)O)[C@@H]3O)[C@@H](O)[C@H]2O)c1 [NADP^+],"NADPH formation, absorbance at 340 nm",ICD,The enzymatic activity of ICD was detected by measuring the amount of NADPH generated
NC(=O)c1ccc[n+]([C@@H]2O[C@H](COP(=O)(O)OP(=O)(O)OC[C@H]3O[C@@H](n4cnc5c(N)ncnc54)[C@H](O)[C@@H]3O)[C@@H](O)[C@H]2O)c1 [NAD^+],"deacetylation of Kac-BSA, anti-Kac western blot",AhCobB [1],AhCobB and AhAcuC significantly deacetylated Kac-BSA in the presence of NAD^+ or Zn2 ^+ buffer
NC(=O)c1cccnc1 [nicotinamide],inhibition,AhCobB [2],the KDAC activity of AhCobB was inhibited when the sirtuin inhibitor nicotinamide (NAM) was added
